# Data: patent US20210393570A1, “THERAPEUTICAL COMPOSITIONS FOR USE IN THE TREATMENT OF NON-MALIGNANT CONDITIONS ASSOCIATED WITH PHOSPHATIDYLINOSITOL-3-KINASE ACTIVATION: OVERGROWTH SPECTRUM, CUTANEOUS CAPILLARY MALFORMATIONS AND SEBORRHEIC KERATOSES” (UNIVERSITÉ DE BOURGOGNE, priority 2017, published 2021)
# Assays:
# [1] = tested on: fibroblasts from patients; assay: Cell viability measured by XTT labeling; type: cell-based, human; conditions: 48 h treatment, increasing doses; compared with PI3K or mTOR inhibitors; FIG. 3A, 3B
# Method: (§1) FIG. 3 Cell viability measured by XTT labeling after 48 h of treatment by 10 μM LY294002 or by increasing doses of Triptolide (A), by 4 ng/ml Rapamycin (B) or increasing doses of Kribb11. For each experiment: control 1 (white bar), control 2 (hatched bar), patient B (grey bar), patient A (black bar). n=3. O.D.=optical density. (C) Number of cells after 48 h treatment for patient A. (D) Cell proliferation measured by incorporation of BrdU. O.D.=optical density. (E) Fibroblasts apoptosis of patients and healthy donors measured by a cell death detection ELISA kit, after 24 h treatment with 100 ng/ml rapamycin, 10 μM LY294002, 3 μM Kribb11 or 10 nM Triptolide. 1 μM of staurosporine was used as an inducer of apoptosis and as positive control of the experiment, n=3. O.D.=optical density. *p<0.05, **p<0.01, ***p<0.005.
# patient A fibroblasts [2] = assay: Number of cells after 48 h treatment; type: cell-based, human; conditions: compared with PI3K or mTOR inhibitors, FIG. 3C
# Method: as §1
# [3] = tested on: fibroblasts from patients; assay: Cell proliferation measured by incorporation of BrdU; type: cell-based, human; conditions: FIG. 3D
# Method: as §1
# patient A fibroblasts [4] = assay: Quantitative PCR of 74 genes known to be regulated by HSF1; type: cell-based, human; conditions: two independent experiments, FIG. 2D
# Text: (D) Quantitative PCR analysis of the expression of 74 genes belonging to a cancer-related gene signature in patient A fibroblasts after treatment with LY294002. A code with different patterns is used to illustrate the intensity of the increase (gradient of grey) or decrease (shading pattern) of gene expression compared to untreated cells;
# The Inventors have further investigated whether the PI3K/AKT/mTOR pathway is directly responsible for the activation of HSF1 in the fibroblasts of patients. The induction of PI3K/AKT activating pathway by adding insulin to normal fibroblasts is well known. […] To test this hypothesis, the expression of 74 known genes to be regulated by HSF1 have been determined after treatment with the PI3K inhibitor (FIG. 2D). In two independent experiments, the expression of 47 genes is inhibited while the expression of 11 genes is increased. The results are variable for 12 other genes (increase and decrease). […] Thus, a large part of a HSF1-dependent gene signature can be inhibited by the blocking of PI3K and thus confirms the link between these two pathways in the syndrome of segmental hypertrophy PIK3CA dependent.
# [5] = tested on: fibroblasts of patients and healthy donors; assay: Fibroblast apoptosis measured by cell death detection ELISA kit; type: cell-based; conditions: 24 h treatment; 3 μM Kribb11 or 10 nM Triptolide; FIG. 3E
# Method: as §1
# HSF1 = assay: Immunoblotting of HSF1 phosphorylation in fibroblasts; type: cell-based, human; conditions: insulin added to normal fibroblasts; FIG. 2A
# AKT = assay: Immunoblotting of AKT phosphorylation in fibroblasts; type: cell-based, human; conditions: treatment with insulin; FIG. 2A
compound,measurement,setting,value
CNc1ccc([N+](=O)[O-])c(Nc2ccc3[nH]ncc3c2)n1 [Kribb11],"cell growth (cell viability, XTT)",[1],reduction in cell growth
same,number of total cells,patient A fibroblasts [2],reduction
same,increase in the % of cells entering the S phase,[3],completely blocked
O=c1cc(N2CCOCC2)oc2c(-c3ccccc3)cccc12 [LY294002],number of HSF1-regulated genes whose expression is increased,patient A fibroblasts [4],11 genes
same,number of HSF1-regulated genes whose expression is inhibited,patient A fibroblasts [4],47 genes
same,number of HSF1-regulated genes with variable results (increase and decrease),patient A fibroblasts [4],12 genes
CC(C)[C@]12O[C@H]1[C@@H]1O[C@]13[C@]1(O[C@H]1C[C@H]1C4=C(CC[C@@]13C)C(=O)OC4)[C@@H]2O [Triptolide],"cell growth (cell viability, XTT)",[1],reduction in cell growth
same,number of total cells,patient A fibroblasts [2],reduction
same,cell mortality (apoptosis),[5],not associated with an increase in cell mortality
insulin,phosphorylation of HSF1,HSF1,induction of the phosphorylation of HSF1
same,phosphorylation of AKT,AKT,induces the phosphorylation of AKT
